Measurements reported in patent publication US9295673B2, “Combination of mTOR inhibitors and P13-kinase inhibitors, and uses thereof” (Intellikine LLC, priority 2011, dated 2016).
Where two headings read alike, the source gives them in different places. Each block holds one compound with its values, some of them ahead of it.

How the values were obtained:
mTOR = biological target: T1, mTOR (Homo sapiens, UniProt P42345); assay: mTOR kinase inhibition assay (radiometric or LanthaScreen TR-FRET); type: biochemical; conditions: read-out: mTORC IC50
T1 construct: purchased Invitrogen
T1 sequence (P42345 1360-2549 limits assumed): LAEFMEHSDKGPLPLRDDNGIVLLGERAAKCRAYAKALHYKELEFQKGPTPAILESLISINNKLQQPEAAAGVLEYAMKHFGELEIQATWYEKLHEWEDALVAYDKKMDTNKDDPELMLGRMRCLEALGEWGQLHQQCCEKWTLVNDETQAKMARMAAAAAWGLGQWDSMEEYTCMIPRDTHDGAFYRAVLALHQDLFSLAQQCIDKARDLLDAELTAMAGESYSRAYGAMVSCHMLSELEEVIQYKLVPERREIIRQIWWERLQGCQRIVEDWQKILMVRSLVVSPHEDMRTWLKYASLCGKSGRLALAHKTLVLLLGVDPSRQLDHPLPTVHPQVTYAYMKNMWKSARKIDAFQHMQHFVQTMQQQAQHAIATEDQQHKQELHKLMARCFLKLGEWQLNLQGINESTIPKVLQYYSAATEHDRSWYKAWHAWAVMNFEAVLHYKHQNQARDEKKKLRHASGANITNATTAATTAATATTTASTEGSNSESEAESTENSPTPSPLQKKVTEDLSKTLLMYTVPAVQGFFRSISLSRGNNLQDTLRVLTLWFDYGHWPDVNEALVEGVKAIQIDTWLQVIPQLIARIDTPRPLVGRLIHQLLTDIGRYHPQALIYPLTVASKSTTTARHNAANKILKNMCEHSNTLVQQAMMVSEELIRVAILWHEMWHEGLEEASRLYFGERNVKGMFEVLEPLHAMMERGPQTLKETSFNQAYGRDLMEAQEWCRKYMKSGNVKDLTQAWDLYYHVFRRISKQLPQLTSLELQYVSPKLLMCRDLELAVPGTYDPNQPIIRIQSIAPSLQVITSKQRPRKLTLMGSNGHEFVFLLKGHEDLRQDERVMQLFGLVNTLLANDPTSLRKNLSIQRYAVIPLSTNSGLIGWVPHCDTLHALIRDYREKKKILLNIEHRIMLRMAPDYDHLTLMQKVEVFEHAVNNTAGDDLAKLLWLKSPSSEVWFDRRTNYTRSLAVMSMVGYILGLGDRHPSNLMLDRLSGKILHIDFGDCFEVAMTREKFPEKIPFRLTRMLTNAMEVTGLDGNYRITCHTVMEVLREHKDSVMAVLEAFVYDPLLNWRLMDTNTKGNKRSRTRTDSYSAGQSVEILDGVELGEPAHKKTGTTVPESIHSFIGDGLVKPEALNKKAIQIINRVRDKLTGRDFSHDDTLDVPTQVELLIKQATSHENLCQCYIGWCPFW

PI3K γ = PI3K γ (Homo sapiens, UniProt P48736); assay: PI 3-Kinase (human) HTRF assay, PI3K γ
PI3K γ, sequence (P48736 whole entry): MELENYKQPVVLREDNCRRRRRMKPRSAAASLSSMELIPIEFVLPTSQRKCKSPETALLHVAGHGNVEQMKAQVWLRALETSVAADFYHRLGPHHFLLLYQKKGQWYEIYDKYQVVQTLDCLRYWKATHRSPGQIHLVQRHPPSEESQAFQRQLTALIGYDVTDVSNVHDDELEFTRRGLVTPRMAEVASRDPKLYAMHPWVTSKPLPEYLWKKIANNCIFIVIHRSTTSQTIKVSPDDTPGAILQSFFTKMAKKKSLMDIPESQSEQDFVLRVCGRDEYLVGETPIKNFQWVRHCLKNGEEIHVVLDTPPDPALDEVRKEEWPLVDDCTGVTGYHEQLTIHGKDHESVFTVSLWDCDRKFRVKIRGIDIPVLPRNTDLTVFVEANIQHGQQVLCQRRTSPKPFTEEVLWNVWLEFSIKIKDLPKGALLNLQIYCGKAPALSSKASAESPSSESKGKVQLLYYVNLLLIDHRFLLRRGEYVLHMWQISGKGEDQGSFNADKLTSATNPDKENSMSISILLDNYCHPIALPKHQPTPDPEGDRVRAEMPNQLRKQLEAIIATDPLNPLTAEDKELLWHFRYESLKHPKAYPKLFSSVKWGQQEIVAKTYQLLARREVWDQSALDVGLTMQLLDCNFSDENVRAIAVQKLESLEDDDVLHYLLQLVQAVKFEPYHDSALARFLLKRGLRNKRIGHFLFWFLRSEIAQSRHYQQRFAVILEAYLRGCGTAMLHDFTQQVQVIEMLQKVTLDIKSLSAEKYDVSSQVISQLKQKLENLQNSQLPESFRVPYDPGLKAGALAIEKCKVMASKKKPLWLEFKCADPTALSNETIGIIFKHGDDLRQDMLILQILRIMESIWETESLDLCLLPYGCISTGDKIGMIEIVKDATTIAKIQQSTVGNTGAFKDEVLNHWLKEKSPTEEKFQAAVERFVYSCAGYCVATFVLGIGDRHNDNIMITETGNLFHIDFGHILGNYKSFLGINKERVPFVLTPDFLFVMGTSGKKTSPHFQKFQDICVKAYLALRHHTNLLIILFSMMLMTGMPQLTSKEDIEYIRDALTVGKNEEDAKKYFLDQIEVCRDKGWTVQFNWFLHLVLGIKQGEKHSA

PI3K α = PI3K α (Homo sapiens, UniProt P42336); assay: PI 3-Kinase (human) HTRF assay, PI3K α
PI3K δ = PI3K δ (Homo sapiens, UniProt O00329); assay: PI 3-Kinase (human) HTRF assay, PI3K δ
PI3K δ, sequence (O00329 whole entry): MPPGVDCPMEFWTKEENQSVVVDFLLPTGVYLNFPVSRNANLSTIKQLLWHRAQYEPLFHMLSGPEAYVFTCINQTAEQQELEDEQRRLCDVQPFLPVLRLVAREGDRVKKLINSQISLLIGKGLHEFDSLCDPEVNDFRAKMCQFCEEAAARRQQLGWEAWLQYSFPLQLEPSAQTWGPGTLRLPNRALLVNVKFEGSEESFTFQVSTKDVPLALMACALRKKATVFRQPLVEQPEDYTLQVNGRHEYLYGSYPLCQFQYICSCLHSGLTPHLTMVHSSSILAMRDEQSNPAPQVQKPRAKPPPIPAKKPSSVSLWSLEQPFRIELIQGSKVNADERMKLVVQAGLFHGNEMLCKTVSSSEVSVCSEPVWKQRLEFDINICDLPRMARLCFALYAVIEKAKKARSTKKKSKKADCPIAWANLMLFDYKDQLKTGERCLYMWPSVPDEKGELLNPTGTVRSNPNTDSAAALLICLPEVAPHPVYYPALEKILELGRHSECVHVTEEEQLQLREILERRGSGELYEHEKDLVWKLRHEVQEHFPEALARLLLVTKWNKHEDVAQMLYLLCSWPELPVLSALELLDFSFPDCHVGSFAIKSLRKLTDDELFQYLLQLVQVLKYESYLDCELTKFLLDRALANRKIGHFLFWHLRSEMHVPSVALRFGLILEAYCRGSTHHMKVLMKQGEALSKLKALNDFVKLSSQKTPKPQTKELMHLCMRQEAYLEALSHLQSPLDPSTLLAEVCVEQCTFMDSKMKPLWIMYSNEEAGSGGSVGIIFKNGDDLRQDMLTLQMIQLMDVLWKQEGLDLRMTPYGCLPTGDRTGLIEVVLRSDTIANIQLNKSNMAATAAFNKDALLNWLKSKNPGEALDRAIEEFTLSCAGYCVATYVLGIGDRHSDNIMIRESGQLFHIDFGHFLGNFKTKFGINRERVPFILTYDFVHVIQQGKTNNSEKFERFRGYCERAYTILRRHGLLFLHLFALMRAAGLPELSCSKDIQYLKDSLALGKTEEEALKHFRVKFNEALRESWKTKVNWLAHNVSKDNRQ
PI3K δ, sequence (P27986 whole entry partner): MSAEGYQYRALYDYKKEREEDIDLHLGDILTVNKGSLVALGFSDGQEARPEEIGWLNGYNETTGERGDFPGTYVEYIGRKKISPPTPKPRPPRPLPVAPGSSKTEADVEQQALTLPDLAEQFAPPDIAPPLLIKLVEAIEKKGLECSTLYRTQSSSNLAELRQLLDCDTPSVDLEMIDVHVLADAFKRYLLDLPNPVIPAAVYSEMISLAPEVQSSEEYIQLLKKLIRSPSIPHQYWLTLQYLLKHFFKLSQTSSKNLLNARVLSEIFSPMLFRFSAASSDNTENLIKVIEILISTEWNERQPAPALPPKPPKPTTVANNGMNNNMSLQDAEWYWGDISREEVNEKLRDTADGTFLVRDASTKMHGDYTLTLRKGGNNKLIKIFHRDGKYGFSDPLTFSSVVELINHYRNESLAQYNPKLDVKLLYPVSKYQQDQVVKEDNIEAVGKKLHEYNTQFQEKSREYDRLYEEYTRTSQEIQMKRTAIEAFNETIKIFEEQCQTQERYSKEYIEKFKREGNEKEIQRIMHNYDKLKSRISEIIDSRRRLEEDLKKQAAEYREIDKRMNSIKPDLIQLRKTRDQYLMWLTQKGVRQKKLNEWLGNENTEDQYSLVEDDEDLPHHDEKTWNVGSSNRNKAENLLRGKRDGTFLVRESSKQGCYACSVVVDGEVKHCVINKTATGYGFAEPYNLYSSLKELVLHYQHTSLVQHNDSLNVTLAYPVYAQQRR

PI3K β = PI3K β (Homo sapiens, UniProt P42338); assay: PI 3-Kinase (human) HTRF assay, PI3K β
[1] = read-out: PI3K γ IC50, in vitro
[2] = read-out: PI3K α IC50, in vitro
[3] = read-out: PI3K δ IC50, in vitro
[4] = read-out: PI3K β IC50, in vitro

SMILES: CN1CC2CN(C(=O)c3cnc4ccc(-c5ccc6oc(N)nc6c5)cn34)CC2C1 (centres unmarked) [Compound 533]
IC50 (mTOR; in vitro): > 10 µM

SMILES: Nc1nc2cc(-c3ccc4ncc(N5C6CCC5COC6)cc4n3)ccc2o1 [Compound 574]
IC50 (PI3K γ; read-out: PI3K γ IC50, Table 4): < 0.1 µM
IC50 (PI3K α; read-out: PI3K α IC50, Table 4): < 0.1 µM
IC50 (PI3K δ; read-out: PI3K δ IC50): > 10 µM
IC50 (PI3K β; read-out: PI3K β IC50, Table 4): < 10 µM

SMILES: Nc1nc2cc(-c3ccc4ncc(C(=O)N5CCN(CC6CC6)CC5)n4c3)ccc2o1 [Compound 161]
IC50 (PI3K γ; read-out: PI3K γ IC50): < 10 µM
IC50 (PI3K α; read-out: PI3K α IC50): < 1 µM
IC50 (PI3K δ; read-out: PI3K δ IC50): < 10 µM
IC50 (PI3K β; read-out: PI3K β IC50): < 10 µM

SMILES: CC(C)n1nc(-c2cc3cc(O)c(Cl)cc3[nH]2)c2c(N)ncnc21 [Compound 32]
IC50 (PI3K γ; read-out: PI3K γ IC50, Table 2): > 0.5 µM
IC50 (mTOR; Table 2): < 0.5 µM
IC50 (PI3K α; read-out: PI3K α IC50): > 0.5 µM
IC50 (PI3K δ; read-out: PI3K δ IC50): > 0.5 µM

SMILES: C[C@@H]1CN(C2CN(c3cnc4ccc(-c5ccc6oc(N)nc6c5)nc4c3)C2)CCN1 [Compound 607]
IC50 (mTOR; Table 4): > 10 µM
IC50 (PI3K β; read-out: PI3K β IC50, Table 4): < 10 µM

IC50 (PI3K γ; read-out: PI3K γ IC50, Table 4): < 10 µM
IC50 (PI3K α; read-out: PI3K α IC50, Table 4): < 1 µM
IC50 (PI3K δ; read-out: PI3K δ IC50, Table 4): > 10 µM
IC50 (PI3K β; read-out: PI3K β IC50, Table 4): > 10 µM
SMILES: CC1CN(C2CN(c3cnc4ccc(-c5ccc6oc(N)nc6c5)nc4n3)C2)CCO1 (centres unmarked) [Compound 569]

IC50 (PI3K γ; [1]): > 10 µM
IC50 (PI3K α; [2]): < 10 µM
IC50 (PI3K δ; [3]): > 10 µM
IC50 (PI3K β; [4]): > 10 µM
SMILES: Nc1cc(-c2ccc3ncc(C(=O)N4CCOCC4)n3c2)cnc1Cl [Compound 415]

IC50 (PI3K γ): < 10 µM
IC50 (PI3K α): < 1 µM
IC50 (PI3K δ): > 10 µM
IC50 (PI3K β): > 10 µM
SMILES: CCN1CCN(C(=O)c2cnc3ncc(-c4ccc5oc(N)nc5c4)cn23)CC1 [Compound 141]

SMILES: Nc1nc2cc(-c3ccc4ncc(C(=O)NC5CCC(O)CC5)n4c3)ccc2o1 (centres unmarked) [Compound 143]
IC50 (PI3K γ; read-out: PI3K γ IC50): < 0.1 µM
IC50 (mTOR): > 10 µM
IC50 (PI3K β; read-out: PI3K β IC50): < 10 µM

IC50 (PI3K γ; read-out: PI3K γ IC50, Table 4): < 10 µM
IC50 (PI3K α; read-out: PI3K α IC50, Table 4): < 1 µM
IC50 (PI3K δ; read-out: PI3K δ IC50, Table 4): > 10 µM
IC50 (PI3K β; read-out: PI3K β IC50, Table 4): > 10 µM
SMILES: Nc1nc2cc(-c3ccc4ncc(N5CC(N6CC7CCC(C6)O7)C5)nc4n3)ccc2o1 [Compound 571]

SMILES: CC(C)n1nc(-c2cc3c(Cl)ccc(O)c3[nH]2)c2c(N)ncnc21 [Compound 39]
IC50 (PI3K γ; read-out: PI3K γ IC50): > 0.5 µM
IC50 (mTOR; Table 2): < 0.01 µM
IC50 (PI3K α; read-out: PI3K α IC50, Table 2): > 0.5 µM
IC50 (PI3K δ; read-out: PI3K δ IC50, Table 2): > 0.5 µM

SMILES: C[C@@H]1CN(c2cnc3ccc(-c4ccc5oc(N)nc5c4)nc3c2)CCN1 [Compound 599]
IC50 (PI3K γ; read-out: PI3K γ IC50, Table 4): < 10 µM
IC50 (mTOR; Table 4): > 10 µM
IC50 (PI3K δ; read-out: PI3K δ IC50): < 10 µM

IC50 (PI3K γ; [1]): > 10 µM
IC50 (PI3K α; [2]): > 10 µM
IC50 (PI3K δ; [3]): > 10 µM
IC50 (PI3K β; [4]): > 10 µM
SMILES: COc1ccc(CNc2n[nH]c3cc(-c4ccc5oc(N)nc5c4)ccc23)cc1 [Compound 429]

SMILES: Nc1nc2cc(-c3cnc4ccc(N5C6CCC5COC6)nc4c3)ccc2o1 [Compound 632]
IC50 (PI3K γ; read-out: PI3K γ IC50): < 10 µM
IC50 (PI3K α; read-out: PI3K α IC50): < 10 µM
IC50 (PI3K δ; read-out: PI3K δ IC50): > 10 µM
IC50 (PI3K β; read-out: PI3K β IC50, Table 4): > 10 µM

IC50 (PI3K γ; read-out: PI3K γ IC50): < 0.1 µM
IC50 (PI3K α; read-out: PI3K α IC50): < 0.1 µM
IC50 (PI3K δ; read-out: PI3K δ IC50): < 10 µM
IC50 (PI3K β; read-out: PI3K β IC50): > 10 µM
SMILES: Cc1ccc(NC(=O)c2cnc3ccc(-c4ccc5oc(N)nc5c4)cn23)cn1 [Compound 294]

IC50 (PI3K γ; read-out: PI3K γ IC50, Table 4): < 0.1 µM
IC50 (PI3K α; read-out: PI3K α IC50, Table 4): < 0.1 µM
IC50 (PI3K δ; read-out: PI3K δ IC50, Table 4): > 10 µM
IC50 (PI3K β; read-out: PI3K β IC50, Table 4): > 10 µM
SMILES: Nc1nc2cc(-c3ccc4ncc(N5CC6CCC(C5)O6)cc4n3)ccc2o1 [Compound 610]

SMILES: Nc1ncnc2c1c(-c1cc3cc(O)ccc3[nH]1)nn2CC(=O)N1CCOCC1 [Compound 34]
IC50 (PI3K γ; read-out: PI3K γ IC50): > 0.5 µM
IC50 (mTOR; Table 2): > 0.5 µM
IC50 (PI3K α; read-out: PI3K α IC50): > 0.5 µM
IC50 (PI3K δ; read-out: PI3K δ IC50): > 0.5 µM

IC50 (PI3K γ): < 1 µM
IC50 (PI3K α): < 0.1 µM
IC50 (PI3K δ): < 1 µM
IC50 (PI3K β): < 1 µM
SMILES: Nc1nsc2cc(-c3ccc4nccc(-c5ccncc5)c4c3)ccc12 [Compound 13]

SMILES: O=C(c1cnc2ccc(-c3ccnc4[nH]ncc34)cn12)N1CCOCC1 [Compound 532]
IC50 (mTOR; in vitro): > 10 µM
IC50 (PI3K α; [2]): < 10 µM

SMILES: COCCn1nc(-c2cc3cc(O)ccc3[nH]2)c2c(N)ncnc21 [Compound 40]
IC50 (PI3K γ; read-out: PI3K γ IC50, Table 2): > 0.5 µM
IC50 (mTOR; Table 2): < 0.1 µM
IC50 (PI3K α; read-out: PI3K α IC50, Table 2): > 0.5 µM
IC50 (PI3K δ; read-out: PI3K δ IC50): > 0.5 µM

SMILES: Nc1ncnc2c1c(-c1cc3cccc(O)c3[nH]1)nn2C1CCCC1 [Compound 36]
IC50 (PI3K γ; read-out: PI3K γ IC50, Table 2): 0.05 to 0.1 µM
IC50 (mTOR; Table 2): < 0.01 µM
IC50 (PI3K α; read-out: PI3K α IC50, Table 2): > 0.5 µM
IC50 (PI3K δ; read-out: PI3K δ IC50, Table 2): 0.1 to 0.5 µM

IC50 (PI3K γ; read-out: PI3K γ IC50, Table 4): < 10 µM
IC50 (PI3K α; read-out: PI3K α IC50, Table 4): < 10 µM
SMILES: Nc1nc2cc(-c3cnc4ccc(N5CCOCC5)nc4c3)ccc2o1 [Compound 624]

SMILES: Nc1ncnc2c1c(-c1cc3cc(O)ccc3[nH]1)nn2CCN1CCOCC1 [Compound 33]
IC50 (PI3K γ; read-out: PI3K γ IC50, Table 2): > 0.5 µM
IC50 (mTOR; Table 2): < 0.5 µM
IC50 (PI3K α; read-out: PI3K α IC50, Table 2): > 0.5 µM
IC50 (PI3K δ; read-out: PI3K δ IC50, Table 2): > 0.5 µM

IC50 (PI3K γ; [1]): > 10 µM
IC50 (PI3K α; [2]): > 10 µM
IC50 (PI3K δ; [3]): > 10 µM
IC50 (PI3K β; [4]): < 10 µM
SMILES: Cc1cc(-c2ccc3nc(N)oc3c2)cn2c(-c3ccncc3)nnc12 [Compound 543]

SMILES: CNC(=O)Cn1nc(-c2cc3cc(O)ccc3[nH]2)c2c(N)ncnc21 [Compound 35]
IC50 (PI3K γ; read-out: PI3K γ IC50, Table 2): > 0.5 µM
IC50 (mTOR; Table 2): > 0.5 µM
IC50 (PI3K α; read-out: PI3K α IC50): > 0.5 µM
IC50 (PI3K δ; read-out: PI3K δ IC50): > 0.5 µM
